Literature values, collected in patent publication US6423320B1, “Inhibitor of immunoglobulin E antibody production” (Tayca Corporation, priority 1997, dated 2002).
Where a name gives a salt, the structure may show the parent alone.

Tested on: IgE antibody production
Details: Bio Industry, Vol. 13, No. 12, pp. 42-50 (1996)

CCOCC(O)COc1ccc(NC(=O)CC[S+](C)C)cc1 (stereo not shown) [IPD, Suplatast Tosylate]
Inhibitory action on the production of IgE antibody: extremely weak inhibitory action
